The compounds below were run against T1, full-length beta-Catenin (Uniprot ID P35222) (Homo sapiens, UniProt P35222) (assay: Fluorescence polarization IC50 (beta-catenin / 5FAM-TCF4 10-53 competition)). Details: fluorescence polarization; read-out: beta-Catenin FP IC50.
T1 construct: 10 nM full-length beta-Catenin (Uniprot ID P35222)
T1 sequence (P35222 1-781): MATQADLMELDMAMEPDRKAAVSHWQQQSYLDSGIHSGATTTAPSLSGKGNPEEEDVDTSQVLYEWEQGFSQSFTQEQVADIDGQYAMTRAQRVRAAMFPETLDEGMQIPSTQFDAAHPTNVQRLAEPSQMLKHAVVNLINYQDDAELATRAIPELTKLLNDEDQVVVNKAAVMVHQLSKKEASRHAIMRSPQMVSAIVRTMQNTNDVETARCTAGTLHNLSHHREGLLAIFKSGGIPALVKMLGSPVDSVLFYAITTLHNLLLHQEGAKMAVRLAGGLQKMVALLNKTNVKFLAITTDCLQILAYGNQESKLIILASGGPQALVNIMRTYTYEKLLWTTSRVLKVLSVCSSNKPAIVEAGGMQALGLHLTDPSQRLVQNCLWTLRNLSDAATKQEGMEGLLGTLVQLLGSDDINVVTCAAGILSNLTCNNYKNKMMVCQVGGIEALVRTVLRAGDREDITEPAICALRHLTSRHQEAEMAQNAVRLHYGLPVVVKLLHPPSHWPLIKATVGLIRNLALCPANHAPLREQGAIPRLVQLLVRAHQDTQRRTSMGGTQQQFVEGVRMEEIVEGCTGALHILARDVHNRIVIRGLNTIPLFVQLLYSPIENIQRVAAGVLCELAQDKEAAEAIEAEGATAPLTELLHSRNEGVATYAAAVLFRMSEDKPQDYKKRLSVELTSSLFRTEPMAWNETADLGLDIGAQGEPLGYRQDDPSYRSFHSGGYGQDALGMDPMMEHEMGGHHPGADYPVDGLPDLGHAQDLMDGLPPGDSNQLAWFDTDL
Format: binding

| SMILES | IC50 |
| --- | --- |
| CC(=O)N1CCC[C@]12CC=CCCCC1(CCCC=CCCCOC(=O)N3CC[C@@](C(=O)N[C@@H](Cc4ccccc4Cl)C(=O)N[C@@H](Cc4csc5ccccc45)C(=O)N[C@@H](CCC(N)=O)C(=O)N[C@H](CO)[C@@H](C)O)(C3)NC(=O)[C@H](CC(C)C)NC(=O)[C@H](Cc3ccccc3)NC(=O)[C@H](C)NC(=O)[C@H](C)NC(=O)[C@H](Cc3cccc(C(=O)O)c3)NC(=O)[C@H](CC(=O)O)NC1=O)NC(=O)[C@H](CC(C)(C)C)NC(=O)[C@H](CC(=O)O)NC2=O (stereo partly drawn) [I-1677, Ac-PL3-Asp-Npg-B5-Asp-3COOHF-Ala-Ala-Phe-Leu-PyrS2-2C1F-BztA-Gln-Thro1] | 17 nM |
| CC(=O)N1CCC[C@]12CC=CCCCC1(CCCC=CCCCOC(=O)N3CC[C@@](C(=O)N[C@@H](Cc4ccsc4)C(=O)N[C@@H](Cc4csc5ccccc45)C(=O)N[C@@H](CCC(N)=O)C(=O)N[C@@H](C)CO)(C3)NC(=O)[C@H](CC(C)C)NC(=O)[C@H](Cc3ccccc3)NC(=O)[C@H](C)NC(=O)[C@H](C)NC(=O)[C@H](CN(CC(=O)O)CC(F)(F)F)NC(=O)[C@H](CC(=O)O)NC1=O)NC(=O)[C@H](CC(C)(C)C)NC(=O)[C@H](CC(=O)O)NC2=O (stereo partly drawn) [I-1679, Ac-PL3-Asp-Npg-B5-Asp-TfeGA-Ala-Ala-Phe-Leu-PyrS2-3Thi-BztA-Gln-Alao1] | 17.5 nM |
| CC(=O)N1CCC[C@]12CC=CCCCC1(CCCC=CCCCOC(=O)N3CC[C@@](C(=O)N[C@@H](Cc4ccsc4)C(=O)N[C@@H](Cc4csc5ccccc45)C(=O)N[C@@H](CCC(N)=O)C(=O)N[C@H](CO)CC(C)C)(C3)NC(=O)[C@H](CC(C)C)NC(=O)[C@H](Cc3ccccc3)NC(=O)[C@H](C)NC(=O)[C@H](C)NC(=O)[C@H](CN(CC(=O)O)CC(F)(F)F)NC(=O)[C@H](CC(=O)O)NC1=O)NC(=O)[C@H](CC(C)(C)C)NC(=O)[C@H](CC(=O)O)NC2=O (stereo partly drawn) [I-1682, Ac-PL3-Asp-Npg-B5-Asp-TfeGA-Ala-Ala-Phe-Leu-PyrS2-3Thi-BztA-Gln-Leuo1] | 41 nM |
| CC(=O)N1CCC[C@]12CC=CCCCC1(CCCC=CCCCOC(=O)N3CC[C@@](C(=O)N[C@@H](Cc4ccccc4Cl)C(=O)N[C@@H](Cc4csc5ccccc45)C(=O)N[C@@H](CCC(N)=O)C(N)=O)(C3)NC(=O)[C@H]([C@@H](C)O)NC(=O)[C@H](Cc3ccccc3)NC(=O)[C@H](C)NC(=O)CNC(=O)[C@H](CN(CC(=O)O)CC(F)(F)F)NC(=O)[C@H](CC(=O)O)NC1=O)NC(=O)[C@H](CC(C)(C)C)NC(=O)[C@H](CC(=O)O)NC2=O (stereo partly drawn) [I-1690, Ac-PL3-Asp-Npg-B5-Asp-TfeGA-Gly-Ala-Phe-Thr-PyrS2-2C1F-BztA-Gln-NH2] | 11 nM |
| CC(=O)N1CCC[C@]12CCCCCCC1(CCCCCCCCOC(=O)N3CC[C@@](C(=O)N[C@@H](Cc4ccccc4Cl)C(=O)N[C@@H](Cc4csc5ccccc45)C(=O)N[C@@H](CCO)C(N)=O)(C3)NC(=O)[C@H](CCO)NC(=O)[C@H](Cc3ccccc3)NC(=O)[C@H](C)NC(=O)[C@H](C)NC(=O)[C@H](CN(CC(=O)O)CC(F)(F)F)NC(=O)[C@H](CC(=O)O)NC1=O)NC(=O)[C@H](CC(C)(C)C)NC(=O)[C@H](CC(=O)O)NC2=O (stereo partly drawn) [I-1699, Ac-PL3-Asp-Npg-B5-Asp-TfeGA-Ala-Ala-Phe-Hse-PyrS2-2C1F-BztA-Hse-NH2] | 533 nM |
| CC(=O)N1CCC[C@]12CC=CCCCC1(CCCC=CCCCOC(=O)N3CC[C@@](C(=O)N[C@@H](CC4CCCC4)C(=O)N[C@@H](Cc4csc5ccccc45)C(=O)N[C@@H](CCC(N)=O)C(N)=O)(C3)NC(=O)[C@H](CC(C)C)NC(=O)[C@H](Cc3ccccc3)NC(=O)[C@H](C)NC(=O)[C@H](C)NC(=O)[C@H](CN(CC(=O)O)CC(F)(F)F)NC(=O)[C@H](CC(=O)O)NC1=O)NC(=O)[C@H](CC(C)(C)C)NC(=O)[C@H](CC(=O)O)NC2=O (stereo partly drawn) [I-1703, Ac-PL3-Asp-Npg-B5-Asp-TfeGA-Ala-Ala-Phe-Leu-PyrS2-CypA-BztA-Gln-NH2] | 24 nM |
| CC(=O)N1CCC[C@]12CCCCCCC1(CCCCCCCCOC(=O)N3CC[C@@](C(=O)N[C@@H](Cc4ccccc4C#N)C(=O)N[C@@H](Cc4csc5ccccc45)C(=O)N[C@@H](CCC(N)=O)C(N)=O)(C3)NC(=O)[C@H](CC(C)C)NC(=O)[C@H](Cc3ccccc3)NC(=O)[C@H](C)NC(=O)[C@H](C)NC(=O)[C@H](CN(CC(=O)O)CC(F)(F)F)NC(=O)[C@H](CC(=O)O)NC1=O)NC(=O)[C@H](CC(C)(C)C)NC(=O)[C@H](CC(=O)O)NC2=O (stereo partly drawn) [I-1712, Ac-PL3-Asp-Npg-B5-Asp-TfeGA-Ala-Ala-Phe-Leu-PyrS2-2CNF-BztA-Gln-NH2] | 597 nM |
| CC(=O)N1CCC[C@]12CCCCCCC1(CCCCCCCCOC(=O)N3CC[C@@](C(=O)N[C@@H](Cc4ccsc4)C(=O)N[C@@H](Cc4csc5ccccc45)C(=O)N[C@@H](CC(N)=O)C(N)=O)(C3)NC(=O)[C@H](CC(C)C)NC(=O)[C@H](Cc3ccccc3)NC(=O)[C@H](C)NC(=O)[C@H](C)NC(=O)[C@H](CN(CC(=O)O)CC(F)(F)F)NC(=O)[C@H](CC(=O)O)NC1=O)NC(=O)[C@H](CC(C)(C)C)NC(=O)[C@H](CC(=O)O)NC2=O (stereo partly drawn) [I-1715, Ac-PL3-Asp-Npg-B5-Asp-TfeGA-Ala-Ala-Phe-Leu-PyrS2-3Thi-BztA-Asn-NH2] | 95 nM |
| CC(=O)N1CCC[C@]12CCCCCCC1(CCCCCCCCOC(=O)N3CC[C@@](C(=O)N[C@@H](Cc4ccsc4)C(=O)N[C@@H](Cc4csc5ccccc45)C(=O)N[C@H](C(N)=O)[C@@H](C)O)(C3)NC(=O)[C@H](CC(C)C)NC(=O)[C@H](Cc3ccccc3)NC(=O)[C@H](C)NC(=O)[C@H](C)NC(=O)[C@H](CN(CC(=O)O)CC(F)(F)F)NC(=O)[C@H](CC(=O)O)NC1=O)NC(=O)[C@H](CC(C)(C)C)NC(=O)[C@H](CC(=O)O)NC2=O (stereo partly drawn) [I-1716, Ac-PL3-Asp-Npg-B5-Asp-TfeGA-Ala-Ala-Phe-Leu-PyrS2-3Thi-BztA-Thr-NH2] | 224 nM |
| CC(=O)N1CCC[C@]12CCCCCCC1(CCCCCCCCOC(=O)N3CC[C@@](C(=O)N[C@@H](Cc4ccsc4)C(=O)N[C@@H](Cc4csc5ccccc45)C(=O)N[C@@H](Cc4ccccc4C(N)=O)C(N)=O)(C3)NC(=O)[C@H](CC(C)C)NC(=O)[C@H](Cc3ccccc3)NC(=O)[C@H](C)NC(=O)[C@H](C)NC(=O)[C@H](CN(CC(=O)O)CC(F)(F)F)NC(=O)[C@H](CC(=O)O)NC1=O)NC(=O)[C@H](CC(C)(C)C)NC(=O)[C@H](CC(=O)O)NC2=O (stereo partly drawn) [I-1717, Ac-PL3-Asp-Npg-B5-Asp-TfeGA-Ala-Ala-Phe-Leu-PyrS2-3Thi-BztA-2cbmf-NH2] | 249 nM |
| CC(=O)N1CCC[C@]12CCCCCCC1(CCCCCCCCOC(=O)N3CC[C@@](C(=O)N[C@@H](Cc4ccsc4)C(=O)N[C@@H](Cc4csc5ccccc45)C(=O)N[C@@H](Cc4cccc(C(N)=O)c4)C(N)=O)(C3)NC(=O)[C@H](CC(C)C)NC(=O)[C@H](Cc3ccccc3)NC(=O)[C@H](C)NC(=O)[C@H](C)NC(=O)[C@H](CN(CC(=O)O)CC(F)(F)F)NC(=O)[C@H](CC(=O)O)NC1=O)NC(=O)[C@H](CC(C)(C)C)NC(=O)[C@H](CC(=O)O)NC2=O (stereo partly drawn) [I-1718, Ac-PL3-Asp-Npg-B5-Asp-TfeGA-Ala-Ala-Phe-Leu-PyrS2-3Thi-BztA-3cbmf-NH2] | 382 nM |
| CC(=O)NCCCC[C@H](NC(=O)[C@H](Cc1csc2ccccc12)NC(=O)[C@H](Cc1ccsc1)NC(=O)[C@]12CCN(C1)C(=O)OCCCCCCCCC1(CCCCCC[C@]3(CCCN3C(C)=O)C(=O)N[C@@H](CC(=O)O)C(=O)N[C@@H](CC(C)(C)C)C(=O)N1)C(=O)N[C@@H](CC(=O)O)C(=O)N[C@@H](CN(CC(=O)O)CC(F)(F)F)C(=O)N[C@@H](C)C(=O)N[C@@H](C)C(=O)N[C@@H](Cc1ccccc1)C(=O)N[C@@H](CC(C)C)C(=O)N2)C(N)=O (stereo partly drawn) [I-1719, Ac-PL3-Asp-Npg-B5-Asp-TfeGA-Ala-Ala-Phe-Leu-PyrS2-3Thi-BztA-AcLys-NH2] | 187 nM |
| CC(=O)N1CCC[C@]12CCCCCCC1(CCCCCCCCOC(=O)N3CC[C@@](C(=O)N[C@@H](Cc4ccsc4)C(=O)N[C@@H](Cc4csc5ccccc45)C(=O)N[C@@H](C)C(N)=O)(C3)NC(=O)[C@H](CC(C)C)NC(=O)[C@H](Cc3ccccc3)NC(=O)[C@H](C)NC(=O)[C@H](C)NC(=O)[C@H](CN(CC(=O)O)CC(F)(F)F)NC(=O)[C@H](CC(=O)O)NC1=O)NC(=O)[C@H](CC(C)(C)C)NC(=O)[C@H](CC(=O)O)NC2=O (stereo partly drawn) [I-1720, Ac-PL3-Asp-Npg-B5-Asp-TfeGA-Ala-Ala-Phe-Leu-PyrS2-3Thi-BztA-Ala-NH2] | 212 nM |
| CC(=O)N1CCC[C@]12CC=CCCCC1(CCCC=CCCCOC(=O)N3CC[C@@](C(=O)N[C@@H](Cc4ccccc4Cl)C(=O)N[C@@H](Cc4csc5ccccc45)C(=O)N[C@@H](CCC(N)=O)C(N)=O)(C3)NC(=O)[C@H](CC(N)=O)NC(=O)[C@H](Cc3ccccc3N)NC(=O)[C@H](C)NC(=O)[C@H](C)NC(=O)[C@H](CC(=O)O)NC(=O)[C@H](CC(=O)O)NC1=O)NC(=O)[C@H](CC(C)(C)C)NC(=O)[C@H](CC(=O)O)NC2=O (stereo partly drawn) [I-1727, Ac-PL3-Asp-Npg-B5-Asp-Asp-Ala-Ala-2NH2F-Asn-PyrS2-2C1F-BztA-Gln-NH2] | 28 nM |

Reference: patent US20240116985A1, “STAPLED PEPTIDES AND METHODS THEREOF” (priority 2020, published 2024)
